Source: the supplement of paper PMC10307832

Key:
Assay in all cases: relative viability (nuclei count vs DMSO), 5 days (fraction); higher = more cells survive
[1] = compound: Cc1ccc2nc(NCCN)c3ncc(C)n3c2c1 + COc1cccc2cc(-c3nc([C@H]4CC[C@H](C(=O)O)CC4)n4ncnc(N)c34)[nH]c12 [OSI-027] (partner 0.5 µM)
Summary of the method: (§1)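 Lung cancer cell lines in 1536-well plates got either a single drug or a fixed anchor-drug dose together with five library-drug doses (not always all listed) in √10 steps, by pin tool, on the day after seeding. Nuclei were counted after 5 days, and relative viability is the treated-to-vehicle ratio of nuclei counts. Values are medians of duplicate plates.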

[2] = compound: Cc1ccc2nc(NCCN)c3ncc(C)n3c2c1 + O=C(CCCCCCC(=O)Nc1ccccc1)NO [Vorinostat] (partner 1 µM)
Summary of the method: as §1

Salubrinal + Linsitinib = compound: O=C(/C=C/c1ccccc1)NC(NC(=S)Nc1cccc2cccnc12)C(Cl)(Cl)Cl [Salubrinal] + C[C@]1(O)C[C@@H](c2nc(-c3ccc4ccc(-c5ccccc5)nc4c3)c3c(N)nccn32)C1 [Linsitinib] (partner 1 µM)
Summary of the method: as §1

Salubrinal + Navitoclax = compound: O=C(/C=C/c1ccccc1)NC(NC(=S)Nc1cccc2cccnc12)C(Cl)(Cl)Cl [Salubrinal] + CC1(C)CCC(c2ccc(Cl)cc2)=C(CN2CCN(c3ccc(C(=O)NS(=O)(=O)c4ccc(N[C@H](CCN5CCOCC5)CSc5ccccc5)c(S(=O)(=O)C(F)(F)F)c4)cc3)CC2)C1 [Navitoclax] (partner 0.5 µM)
Summary of the method: as §1

Row | Cell Line | relative viability ([1]; first compound 0.04 µM) | relative viability ([1]; first compound 0.1265 µM) | relative viability ([1]; first compound 0.4 µM) | relative viability ([1]; first compound 1.265 µM) | relative viability ([1]; first compound 4 µM) | relative viability ([2]; first compound 0.04 µM) | relative viability ([2]; first compound 0.1265 µM) | relative viability ([2]; first compound 0.4 µM) | relative viability ([2]; first compound 1.265 µM) | relative viability ([2]; first compound 4 µM) | relative viability (Salubrinal + Linsitinib; first compound 0.08 µM) | relative viability (Salubrinal + Linsitinib; first compound 0.253 µM) | relative viability (Salubrinal + Linsitinib; first compound 0.8 µM) | relative viability (Salubrinal + Linsitinib; first compound 2.53 µM) | relative viability (Salubrinal + Linsitinib; first compound 8 µM) | relative viability (Salubrinal + Navitoclax; first compound 0.08 µM) | relative viability (Salubrinal + Navitoclax; first compound 0.253 µM) | relative viability (Salubrinal + Navitoclax; first compound 0.8 µM) | relative viability (Salubrinal + Navitoclax; first compound 2.53 µM) | relative viability (Salubrinal + Navitoclax; first compound 8 µM)
1 | NCI-H1437 | 1 | 0.871 | 0.886 | 0.879 | 0.884 | 0.752 | 0.813 | 0.771 | 0.667 | 0.653 | 1.27 | 0.691 | 1.19 | 1.06 | 0.853 | 1.14 | 1.06 | 1.16 | 1.08 | 1.09
2 | NCI-H1651 | 0.787 | 0.708 | 0.681 | 0.613 | 0.604 | 0.639 | 0.558 | 0.564 | 0.539 | 0.483 | 1.09 | 0.692 | 1.06 |  | 0.968 | 1.1 | 1.01 | 1.21 |  | 0.979
3 | NCI-H1666 | 0.839 | 0.799 | 0.887 | 0.816 | 0.774 | 1.06 | 1.05 | 0.925 | 0.944 | 1.05 | 0.78 | 0.777 | 0.869 | 0.735 | 0.797 | 0.979 | 0.992 | 1.24 | 0.93 | 0.878
4 | NCI-H1734 | 0.619 | 0.557 | 0.502 | 0.551 | 0.543 | 0.816 | 0.824 | 0.637 | 0.733 | 0.77 | 0.931 | 0.858 | 1.02 | 0.976 | 0.826 | 0.938 | 0.755 | 0.964 | 0.858 | 0.745
5 | NCI-H1755 | 0.77 | 0.738 | 0.718 | 0.72 | 0.655 | 0.806 | 0.899 | 0.728 | 0.696 | 0.857 | 1.05 | 0.869 | 1.03 | 1 | 0.947 | 1.04 | 0.983 | 0.928 | 1.05 | 0.969
6 | NCI-H1793 | 0.305 | 0.314 | 0.236 | 0.317 | 0.29 | 0.825 | 0.792 | 0.815 | 0.642 | 0.679 | 1.1 | 0.798 | 1.04 | 0.795 | 0.636 | 0.476 | 0.432 | 0.431 | 0.351 | 0.339
7 | NCI-H1915 | 0.641 | 0.605 |  | 0.696 | 0.594 | 0.515 | 0.506 | 0.422 | 0.555 | 0.454 | 1.02 | 1.06 | 1.16 | 1.1 | 1.13 | 0.774 | 0.778 | 0.83 | 0.759 | 0.774
8 | NCI-H1944 | 0.391 | 0.376 | 0.341 | 0.443 | 0.403 | 0.639 | 0.581 | 0.358 | 0.491 | 0.581 | 1.28 | 1.23 | 1.34 | 1.17 | 1.15 | 1.07 | 1.08 | 1.12 | 1.04 | 1.05
9 | NCI-H1975 | 0.709 | 0.692 | 0.711 | 0.716 | 0.523 | 0.733 | 0.711 | 0.753 | 0.708 | 0.582 | 1.1 | 0.735 | 1.17 | 0.988 | 0.946 | 1.27 | 0.796 | 1.21 | 1.15 | 1.1
10 | NCI-H1993 | 0.521 | 0.53 | 0.544 | 0.562 | 0.508 | 0.797 | 0.776 | 0.727 | 0.856 | 0.649 | 0.757 | 0.722 | 0.775 | 0.805 | 0.816 | 1.02 | 0.902 | 0.976 | 0.799 | 0.733
11 | NCI-H2009 | 0.764 | 0.668 | 0.722 | 0.632 | 0.525 | 0.7 | 0.736 | 0.72 | 0.709 | 0.617 | 1.16 | 1.17 | 1.28 | 1.2 | 1.14 | 1.16 | 1.18 | 1.19 | 1.17 | 1.07
12 | NCI-H2023 | 0.51 | 0.387 | 0.489 | 0.453 | 0.369 | 0.682 | 0.689 | 0.568 | 0.682 | 0.638 | 0.707 | 0.573 | 0.676 | 0.777 | 0.706 | 1.05 | 0.733 | 0.96 | 1.01 | 0.932
13 | NCI-H2085 | 0.839 | 0.819 | 0.658 | 0.906 | 0.742 | 0.816 | 0.784 | 0.77 | 0.857 | 0.808 | 1.03 | 0.754 | 0.896 | 0.787 | 0.868 | 1.26 | 1 | 1.23 | 1.07 | 1.21
14 | NCI-H2087 | 0.648 | 0.595 | 0.478 | 0.703 | 0.501 | 0.435 | 0.657 | 0.611 | 0.884 | 0.675 | 1.01 | 0.942 | 0.98 | 0.782 | 1.02 | 1.04 | 1.02 | 1.11 | 0.964 | 0.945
15 | NCI-H2126 | 0.724 | 0.733 | 0.661 | 0.667 | 0.646 | 0.931 | 0.821 | 0.788 | 0.835 | 0.755 | 0.716 | 0.707 | 0.748 | 0.693 | 0.689 | 0.897 | 0.913 | 0.914 | 0.808 | 0.867
16 | NCI-H2228 | 0.589 | 0.656 | 0.617 | 0.59 | 0.719 | 0.639 | 0.589 | 0.858 | 0.595 | 0.544 | 0.768 | 0.813 | 0.791 | 0.581 | 0.629 | 1.43 | 0.661 | 0.888 | 1.07 | 0.767
17 | NCI-H2347 | 0.373 | 0.503 | 0.386 | 0.425 | 0.223 | 0.577 | 0.614 | 0.526 | 0.672 | 0.729 | 1.06 | 1 | 1.06 | 1.15 | 0.963 | 0.928 | 0.86 | 0.75 | 0.728 | 0.864
18 | NCI-H2405 | 0.694 | 0.628 | 0.686 | 0.623 | 0.636 | 1.2 | 0.943 | 0.946 | 1.01 | 0.93 | 1.07 | 1 | 0.861 | 0.889 | 0.843 | 0.942 | 0.957 | 0.793 | 0.82 | 0.905
19 | NCI-H3122 | 1.06 | 0.953 | 0.858 | 0.828 | 0.678 | 1.13 | 1.28 | 1.01 | 1.05 | 1.37 | 1.07 | 1.06 | 0.984 | 1.06 | 0.987 | 1.09 | 1.01 | 1.06 | 1.06 | 1.09
20 | PC-3 [JPC-3] | 0.776 | 0.83 | 0.734 | 0.822 | 0.767 | 0.825 | 0.752 | 0.709 | 0.774 | 0.734 | 0.927 | 0.999 | 0.982 | 0.928 | 0.937 | 0.859 | 0.768 | 0.846 | 0.766 | 0.766
21 | PC-14 | 0.882 | 0.819 | 0.979 | 0.759 | 0.388 | 0.766 | 0.693 | 0.763 | 0.718 | 0.567 | 1.02 | 0.899 | 1.06 | 0.975 | 0.892 | 1.05 | 1.01 | 1 | 1.07 | 0.864
22 | RERF-LC-KJ | 0.596 | 0.639 | 0.566 | 0.604 | 0.52 | 0.749 | 0.773 | 0.713 | 0.861 | 0.712 | 0.896 | 0.806 | 0.931 | 0.791 | 0.846 | 0.858 | 1.24 | 0.816 | 0.945 | 0.83
23 | SK-LU-1 | 0.371 | 0.369 | 0.376 | 0.376 | 0.361 | 0.851 | 0.725 | 0.784 | 0.856 | 0.734 | 1.26 | 1.19 | 1.37 | 1.02 | 1.16 | 0.917 | 0.745 | 1.02 | 0.859 | 0.864
24 | SK-MES-1 | 0.66 | 0.659 | 0.59 | 0.668 | 0.632 | 1.19 | 1.13 | 1.03 | 1.13 | 1.03 | 1.12 | 1.04 | 1.05 | 1.07 | 1.08 | 1.39 | 1.12 | 1.33 | 1.24 | 1.12
25 | SW 1573 | 0.737 | 0.579 | 0.711 | 0.634 | 0.409 | 0.85 | 0.903 | 0.669 | 0.865 | 0.65 | 0.903 | 0.759 | 0.718 | 0.792 | 0.844 | 1.02 | 1 | 0.937 | 0.929 | 1.01
